Structures can show the parent of a compound that is named as a salt. Where two headings read alike, the source gives them in different places.
Legend:
[1] = tested on: unilateral IR model of AKI in rats; assay: unilateral IR model of AKI in rats (kidney functional markers, tubular injury); format: in vivo, male SD (Sprague Dawley) rats; details: for BUN vs IR vehicle: p<0.0001 (FIG. 4); for serum creatinine: p<0.0001 (FIG. 9A)
Protocol: A total of […] male SD (Sprague Dawley) rats were divided into 10 groups each with 10 rats/group as detailed in the Table 3. The ischemia was induced in the left kidney using a small clamp (Sugita standard aneurysm clip holding force 145 g) that was placed on the renal vascular pedicle for 30 min for all groups except SHAM group.
All rats were housed in metabolic cages for the collection of 24-hour urine samples for ACR, NGAL and β2-MG levels. After 24 hours, rats were anaesthetized, and blood samples were collected for sCre, and BUN levels. The left kidney was collected and processed for histology for tubular injury scores.
A total of additional 10 male SD (Sprague Dawley) rats were used along with the Group 1 (No IR) and Group 2 (IR); and other Groups listed in the Tabel 3; and conducted the study. The ischemia was induced in the left kidney of those additional 10 rats using a small clamp (Sugita standard aneurysm clip holding force 145 g) that was placed on the renal vascular pedicle for 30 min.
Nicorandil at 10 mg/kg, was administered 30 minutes prior to the induction of ischemia via intraperitoneal (ip) administration to the additional 10 rats along with the groups listed in Table 3. All additional 10 rats were housed in metabolic cages for the collection of 24-hour urine samples for ACR. After 24 hours, rats were anaesthetized, and blood samples were collected for sCre. The left kidney was collected and processed for histology for tubular injury scores along with the other groups as detailed in Table 3.

[2] = Phase I study Part 2, multiple ascending doses (MAD), BID oral fasted; format: in vivo, human; details: for dose-proportionality of exposure from 40 mg to 80 mg (Cmax and AUC(0-tau)): Day 1, analyte = labelled substance; for Tmax at 5 days: read-out: median Tmax
Excerpt: Part 2 of the study was a double-blind, randomized, placebo-controlled, MAD study.

[3] = Phase I study Part 1, single ascending doses (SAD), oral fasted
Protocol: (§1) In this Phase I study, the safety and tolerability of single ascending doses (SAD) of Compound 8 was administered to male and female subjects. The study was a single centre, double-blinded, placebo-controlled, randomized single ascending doses (SAD) and multiple ascending doses (MAD) study in healthy male and female subjects of non-childbearing potential.
(§2) Part 1 was a double-blinded, randomized, placebo-controlled, SAD study, including approximately 32 subjects in 4 cohorts of 8 subjects each (randomized to a ratio of 6 active and 2 placebo per cohort). The subjects received the regimens presented in Table A. The route of administration was oral and fasted.
(§3) Subjects received a single dose of Compound 8 Capsule or placebo in the morning following an overnight fast. For Regimen E, Period 2, cohort SAD 3 were readmitted to the clinical unit. There was a minimum 7-day washout between dosing occasions for Regimen C and Regimen E. Blood samples were collected at regular intervals for safety and PK analysis from Day −1 to discharge from the clinical unit.
(§4) In Part 1 of the study, subjects received a single oral doses of Compound 8 Capsule or placebo on one occasion in the fasted state, except for subjects in Cohort SAD 3 who received two single doses on two separate occasions. Doses ranged from 10 mg to 160 mg. In Part 2 of the study, subjects received single doses of Compound 8 Capsule or placebo BID for 4 consecutive days and once on Day 5 in the fasted state. Doses ranged from 40 mg to 80 mg.

[4] = nicorandil 10 mg; cited from earlier work
[5] = tested on: contrast induced nephropathy; details: 10 mg BID dosing; cited from earlier work
[6] = tested on: rat bilateral ischemia/reperfusion (IR) model; assay: rat bilateral ischemia/reperfusion (IR) model, oral Compound 8 (iodide salt); format: in vivo, male Sprague Dawley rats; details: for urine β2-MG levels and content compared with Group 2 (IR): iodide salt
Excerpt: Animal models of IRI (ischemia reperfusion injury), DGF (delayed graft function), and AKI (acute kidney injury) mimic many features seen in human kidney allografts. […] In 2011, the FDA held a workshop to review the current state of knowledge related to the effects of IRI on outcomes in kidney transplantation in animal models. The FDA stated animal models have implicated maladaptive host responses to […]. The maladaptive responses are changes in hemodynamics, decrease in oxygen tension, mitochondrial dysfunction, tubular injury, inflammation, etc.
In the rat bilateral IR model, the bilateral renal pedicle was clamped for 45 min for ischemia and then the clamp is removed to allow reperfusion. […] Urine β2-MG levels and content of Group 2 were higher than those in Group 1. Compared with Group 2, Groups 3 and 4 had lower urine β2-MG levels and content (n=10/group) (FIG. 1; […] at 10 mg/kg dose and p<0.01 at 20 mg/kg dose—as per one-way ANOVA multiple comparison test).

clinical = details: both, human, plasma, oral
Protocol: as §1, §2, §3, §4

C[C@@H](NC(=O)OC[n+]1cccc(C(=O)NCCO[N+](=O)[O-])c1)C1CCCCC1 [Compound 8, nitrate salt]
serum creatinine vs IR vehicle ([1]; 5 mg/kg/iv single dose 30 min prior to ischemia, p<0.0001 (FIG. 2C)): phenomenally reduced
BUN vs IR vehicle ([1]; 5 mg/kg/iv single dose 30 min prior to ischemia): phenomenally reduced
urinary ACR vs IR vehicle ([1]; 5 mg/kg/iv single dose 30 min prior to ischemia, p<0.001 (FIG. 3C)): phenomenally reduced
serum creatinine vs IR vehicle ([1]; 10 mg/kg/iv single dose 30 min prior to ischemia, p<0.0001 (FIG. 2C)): phenomenally reduced
BUN vs IR vehicle ([1]; 10 mg/kg/iv single dose 30 min prior to ischemia): phenomenally reduced
urinary ACR vs IR vehicle ([1]; 10 mg/kg/iv single dose 30 min prior to ischemia, p<0.001 (FIG. 3C)): phenomenally reduced
urinary ACR vs IR vehicle ([1]; 25 mg/kg/ip single dose 30 min prior to ischemia, p<0.01 (FIG. 3B)): significantly reduced
urinary ACR vs IR vehicle ([1]; 50 mg/kg/ip single dose 30 min prior to ischemia, p<0.001 (FIG. 3B)): significantly reduced
serum creatinine vs IR vehicle ([1]; 50 mg/kg/ip single dose 30 min prior to ischemia, p<0.05 (FIG. 2B)): significantly reduced
urinary ACR vs IR vehicle ([1]; 50 mg/kg/po single dose 30 min prior to ischemia, p<0.01 (FIG. 3A)): significantly reduced
urinary ACR vs IR vehicle ([1]; 100 mg/kg/po single dose 30 min prior to ischemia, p<0.001 (FIG. 3A)): significantly reduced
serum creatinine vs IR vehicle ([1]; 100 mg/kg/po single dose 30 min prior to ischemia, p<0.05 (FIG. 2A)): significantly reduced
proximal convoluted tubular injury scores ([1]; intraperitoneal high dose 50 mg/kg, preventive, p<0.0001 (FIG. 6B)): effective in lowering
tubular injury marker β2-MG (urinary) ([1]; intraperitoneal low dose 25 mg/kg, preventive, p<0.01 (FIG. 8)): effective in lowering
tubular injury/damage, histological images ([1]; intraperitoneal route (FIG. 7D)): moderately ameliorated
tubular injury marker NGAL (urinary) ([1]; intravenous high dose 10 mg/kg, preventive, p<0.0001 (FIG. 5B)): robustly effective in lowering
proximal convoluted tubular injury scores ([1]; intravenous high dose 10 mg/kg, preventive, p<0.0001 (FIG. 6C)): robustly effective in lowering
tubular injury marker NGAL (urinary) ([1]; intravenous low dose 5 mg/kg, preventive, p<0.0001 (FIG. 5B)): robustly effective in lowering
proximal convoluted tubular injury scores ([1]; intravenous low dose 5 mg/kg, preventive, p<0.0001 (FIG. 6C)): robustly effective in lowering
tubular injury/damage, histology ([1]; intravenous route, low and high doses (FIG. 6C, 7E)): markedly ameliorated
tubular injury marker NGAL (urinary) ([1]; oral high dose 100 mg/kg, preventive, p<0.0001 (FIG. 5A)): effective in lowering
proximal convoluted tubular injury scores/damage ([1]; oral high dose 100 mg/kg, preventive, p<0.0001 (FIG. 6A)): effective in lowering
tubular injury marker NGAL (urinary) ([1]; oral low dose 50 mg/kg, preventive, p<0.0001 (FIG. 5A)): effective in lowering
tubular injury/damage, histological images ([1]; oral route (FIG. 7C)): moderately ameliorated
BUN ([1]; therapeutic regimen, 10 mg/kg/iv at 1 hour, p<0.001 (FIG. 9B)): phenomenally reduced
BUN ([1]; therapeutic regimen, 10 mg/kg/iv at 4 hours, p<0.0001 (FIG. 9B)): phenomenally reduced
urinary NGAL ([1]; therapeutic regimen, 10 mg/kg/iv at 4 hours, p<0.01 (FIG. 9C)): phenomenally reduced
serum creatinine ([1]; therapeutic regimen, 10 mg/kg/iv single dose at 1 hour after ischemia): phenomenally reduced
serum creatinine ([1]; therapeutic regimen, 10 mg/kg/iv single dose at 4 hours after ischemia): phenomenally reduced

CC(N)C1CCCCC1 (stereo not shown) [1-cyclohexylethylamine]
subjects with quantifiable concentrations ([2]; multiple oral dosing 40 mg or 80 mg Compound 8 for 5 days): all subjects
subjects with quantifiable concentrations ([2]; single dosing of Compound 8 Capsule 80 mg): all subjects
PK profiles ([3]; after Compound 8 10 mg, 20 mg and 40 mg dose levels): entirely BLQ
subjects with quantifiable concentrations ([3]; after Compound 8 160 mg): all subjects

O=C(NCCO[N+](=O)[O-])c1cccnc1 [Nicorandil, reference compound]
proximal tubules, histological images ([1]; 10 mg/kg ip (FIG. 10D)): most all proximal tubules are healthy
serum creatinine compared to Group 2 ([1]; 10 mg/kg ip single dose 30 min prior to ischemia, p<0.0001 (FIG. 10A)): significantly reduced
ACR compared to Group 2 ([1]; 10 mg/kg ip single dose 30 min prior to ischemia, p<0.0001 (FIG. 10B)): significantly reduced
tubular injury/damage compared to Group 2 ([1]; 10 mg/kg ip single dose 30 min prior to ischemia, p<0.0001 (FIG. 10C)): significantly reduced
dose-proportionality of exposure from 40 mg to 80 mg (Cmax and AUC(0-tau)) [2]: proportional increase
AUC [4]: 101 (range of 122-323) hour·ng/m
Cmax [4]: 107 (range of 44-148) ng/mL
Tmax [4]: 0.43 (range 0.25-0.75) hours
activity in contrast induced nephropathy [5]: show activity
dose proportionality of peak (20-160 mg) and total (40-160 mg) exposure ([3]; nicorandil after Compound 8, Cmax and AUC(0-last)): slightly greater than proportional

CC(NC(=O)OC[n+]1cccc(C(=O)NCCO[N+](=O)[O-])c1)C1CCCCC1 (stereo in doubt) [Compound 8, (S)-1-(((1-cyclohexylethylcarbamoyl)oxy)methyl)-3-((2-(nitroxy)ethyl)carbamoyl)pyridine-1-ium iodide]
physical or behavioral abnormalities vs vehicle ([6]; 10 and 20 mg/kg oral): no physical or behavioral abnormalities
significant changes in body weight vs vehicle ([6]; 10 and 20 mg/kg oral): no
uACR vs vehicle ([6]; 10 and 20 mg/kg oral): no significant difference
urine albumin concentration or total amount vs vehicle ([6]; 10 and 20 mg/kg oral): no significant difference
urine creatinine concentration or total amount vs vehicle ([6]; 10 and 20 mg/kg oral): no significant difference
creatinine marker of kidney function ([6]; doses up to 20 mg/kg oral): did not appear to have a significant impact
histological markers of kidney function (histological scores for tubular injury) ([6]; doses up to 20 mg/kg oral): did not appear to have a significant impact
urine β2-MG levels and content compared with Group 2 (IR) ([6]; 10 mg/kg oral 1 hour prior to ischemia, p<0.5 (FIG. 1)): lower
urine β2-MG levels and content compared with Group 2 (IR) ([6]; 20 mg/kg oral 1 hour prior to ischemia, p<0.01 (FIG. 1)): lower
dose-proportionality of exposure from 40 mg to 80 mg (Cmax and AUC(0-tau)) [2]: approximate proportional increase
half-life at 5 day ([2]; both sexes, human, plasma, oral, Day 5, both doses, reliable in 3 out of the 10 profiles, read-out: individual plasma half-life): 1.11 to 1.42 h
Tmax at 5 days ([2]; both sexes, human, plasma, multiple oral doses 40 mg for 5 days): 1.5 h
Tmax at 5 days ([2]; both sexes, human, plasma, multiple oral doses 80 mg for 5 days): 1 h
Tmax (clinical): 0.5 to 1.5 h
half-life (clinical): 0.74 to 2.58 h
AUC(0-t) (clinical; 10 mg): > 0.127 ng·h/mL
Cmax (clinical; 10 mg): > 1.01 ng/mL
dose proportionality of peak and overall exposure (Cmax, AUC(0-last)) ([3]; 10 mg to 160 mg dose range): sub-proportional increase

— patent US20250161282A1, “PHARMACEUTICAL PYRIDYL COMPOSITIONS FOR TREATING AND PREVENTING DELAYED GRAFT FUNCTION” (Unicycive Therapeutics, Inc., priority 2023, published 2025)
